The term Ki denotes a dissociation constant, usually derived from enzyme kinetics or from competition with a known ligand.

The target of this assay is T1, human mGlu5a receptor (Homo sapiens, UniProt P41594).
T1 construct: expressed in transfected cells; host or cells: EBNA cells (transient transfection); cell membrane homogenates
T1 sequence (P41594 21-1180 isoform P41594-2 limits assumed): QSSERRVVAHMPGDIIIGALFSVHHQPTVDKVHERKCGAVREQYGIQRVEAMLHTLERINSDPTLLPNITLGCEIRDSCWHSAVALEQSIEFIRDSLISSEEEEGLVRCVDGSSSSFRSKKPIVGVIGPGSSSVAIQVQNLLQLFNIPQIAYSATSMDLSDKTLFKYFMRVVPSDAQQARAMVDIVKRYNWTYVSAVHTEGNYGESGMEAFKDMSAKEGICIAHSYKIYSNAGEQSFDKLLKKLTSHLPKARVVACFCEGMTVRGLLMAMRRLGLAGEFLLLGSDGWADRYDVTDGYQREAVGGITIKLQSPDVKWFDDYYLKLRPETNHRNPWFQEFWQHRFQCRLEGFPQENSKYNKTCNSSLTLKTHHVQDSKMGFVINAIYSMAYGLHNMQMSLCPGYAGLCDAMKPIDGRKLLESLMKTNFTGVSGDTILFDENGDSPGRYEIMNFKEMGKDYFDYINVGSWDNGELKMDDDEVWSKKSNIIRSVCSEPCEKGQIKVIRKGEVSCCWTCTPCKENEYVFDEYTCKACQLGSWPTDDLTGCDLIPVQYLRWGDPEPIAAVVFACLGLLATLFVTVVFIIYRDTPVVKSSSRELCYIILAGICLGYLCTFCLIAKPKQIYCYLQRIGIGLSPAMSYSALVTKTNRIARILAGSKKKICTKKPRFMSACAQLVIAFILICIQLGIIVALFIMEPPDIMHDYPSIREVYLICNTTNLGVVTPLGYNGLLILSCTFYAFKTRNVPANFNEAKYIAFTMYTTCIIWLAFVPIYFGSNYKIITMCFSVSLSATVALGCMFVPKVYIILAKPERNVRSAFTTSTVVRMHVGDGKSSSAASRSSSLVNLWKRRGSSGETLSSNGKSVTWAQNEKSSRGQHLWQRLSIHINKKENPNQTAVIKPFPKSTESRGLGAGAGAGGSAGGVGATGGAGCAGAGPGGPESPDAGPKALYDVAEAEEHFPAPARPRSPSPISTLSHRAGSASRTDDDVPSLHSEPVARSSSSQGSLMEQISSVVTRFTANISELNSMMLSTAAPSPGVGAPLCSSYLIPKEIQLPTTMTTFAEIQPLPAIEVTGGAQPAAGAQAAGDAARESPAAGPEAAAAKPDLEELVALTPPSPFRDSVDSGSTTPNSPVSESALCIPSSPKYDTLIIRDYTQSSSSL
In words: [3H]MPEP competition binding on membranes of EBNA cells transfected with human mGlu5a receptor. The conditions noted are these: [3H]MPEP 2 nM, 1 h at 4° C., read-out: Ki (mGluR5). As to the method:
For binding experiments, cDNA encoding human mGlu5a receptor was transiently transfected into EBNA cells using a procedure described by Schlaeger and Christensen [Cytotechnology 15:1-13 (1998)]. Cell membrane homogenates were stored at −80° C. until the day of assay where upon they were thawed and resuspended and polytronised in 15 mM Tris-HCl, 120 mM NaCl, 100 mM KCl, 25 mM CaCl2, 25 mM MgCl2 binding buffer at pH 7.4 to a final assay concentration of 20 […].
Saturation isotherms were determined by addition of twelve [^3H]MPEP concentrations (0.04-100 nM) to these membranes (in a total volume of 200 μl) for 1 h at 4° C. […] Incubations were performed for 1 h at 4° C.
At the end of the incubation, membranes were filtered onto unifilter (96-well white microplate with bonded GF/C filter preincubated 1 h in 0.1% PEI in wash buffer, Packard BioScience, Meriden, Conn.) with a Filtermate 96 harvester (Packard BioScience) and washed 3 times with cold 50 mM Tris-HCl, pH 7.4 buffer. Nonspecific binding was measured in the presence of […]. The radioactivity on the filter was counted (3 min) on a Packard Top-count microplate scintillation counter with quenching correction after addition of 45 μl of microscint 40 (Canberra Packard S.A., Zutrich, Switzerland) and shaking for 20 min.
The inhibition (antagonists) curves were fitted with a four parameter logistic equation giving IC50, and Hill coefficient using an iterative non linear curve fitting software (Xcel fit).
The Ki value is defined by the following formula: […]
L is the concentration of radioligand used in the binding experiment and the Kd value of the radioligand is empirically determined for each batch of membranes prepared.
Consider `Cc1nc(C#Cc2ccnc(Cl)c2)c(C)n1-c1cccc(Cl)c1F` [compound 20, 2-Chloro-4-[1-(3-chloro-2-fluoro-phenyl)-2,5-dimethyl-1H-imidazol-4-ylethynyl]-pyridine], for which the Ki was found to be 28 nM.
Then `Cc1ccc(-n2c(C)nc(C#Cc3ccnc(Cl)c3)c2C)cc1` [compound 7, 2-Chloro-4-(2,5-dimethyl-1-p-tolyl-1H-imidazol-4-ylethynyl)-pyridine], with 21 nM.
Under `Cc1ccc(-n2c(C)nc(C#Cc3ccnc(Cl)c3)c2C)cc1Cl` [compound 8, 2-Chloro-4-[1-(3-chloro-4-methyl-phenyl)-2,5-dimethyl-1H-imidazol-4-ylethynyl]-pyridine] stands 10 nM.
With `Cc1nc(C#Cc2ccnc(Cl)c2)c(C)n1-c1ccc(C(F)(F)F)cc1` [compound 13, 2-Chloro-4-[2,5-dimethyl-1-(4-trifluoromethyl-phenyl)-1H-imidazol-4-ylethynyl]-pyridine], the Ki was 44 nM.
Then `Cc1nc(C#Cc2ccnc(Cl)c2)c(C)n1-c1ccc(F)c(Cl)c1` [compound 22, 2-Chloro-4-[1-(3-chloro-4-fluoro-phenyl)-2,5-dimethyl-1H-imidazol-4-ylethynyl]-pyridine], with 31 nM.
Turning to `Cc1nc(C#Cc2ccnc(Cl)c2)c(CO)n1-c1ccc(F)cc1` [compound 28, [5-(2-Chloro-pyridin-4-ylethynyl)-3-(4-fluoro-phenyl)-2-methyl-3H-imidazol-4-yl]-methanol], the Ki is 211 nM.
Under `Cc1nc(C#Cc2ccnc(Cl)c2)c(C)n1-c1cnccn1` [compound 18, 2-[4-(2-Chloro-pyridin-4-ylethynyl)-2,5-dimethyl-imidazol-1-yl]-pyrazine] stands 108 nM.
Then `Cc1cc(-n2c(C)nc(C#Cc3ccnc(Cl)c3)c2C)ccc1OC(F)(F)F` [compound 14, 2-Chloro-4-[2,5-dimethyl-1-(3-methyl-4-trifluoromethoxy-phenyl)-1H-imidazol-4-ylethynyl]-pyridine], with 5 nM; and `Cc1cc(-n2c(C)nc(C#Cc3ccnc(Cl)c3)c2C)ccc1F` [compound 6, 2-Chloro-4-[1-(4-fluoro-3-methyl-phenyl)-2,5-dimethyl-1H-imidazol-4-ylethynyl]-pyridine], with 35 nM.
Then `Cc1nc(C#Cc2ccnc(Cl)c2)c(C)n1-c1ccc(Cl)cc1` [compound 19, 2-Chloro-4-[1-(4-chloro-phenyl)-2,5-dimethyl-1H-imidazol-4-ylethynyl]-pyridine], with 20 nM.
Consider `Cc1nc(C#Cc2ccnc(Cl)c2)c(C)n1-c1ccc(Cl)nc1` [compound 16, 2-Chloro-5-[4-(2-Chloro-pyridin-4-ylethynyl)-2,5-dimethyl-1H-imidazol-1-yl]-pyridine], for which the Ki worked out at 86 nM.
On to `Cc1nc(C#Cc2ccnc(Cl)c2)c(C)n1-c1cccc(C(F)(F)F)n1` [compound 24, 2-[4-(2-Chloro-pyridin-4-ylethynyl)-2,5-dimethyl-1H-imidazol-1-yl]-6-(trifluoromethyl)-pyridine], for which the Ki amounted to 26 nM.
Then `Cc1c(C#Cc2ccnc(Cl)c2)nn(C)c1-c1ccc(F)cc1` [compound 26, 2-Chloro-4-[5-(4-fluoro-phenyl)-1,4-dimethyl-1H-pyrazol-3-ylethynyl]-pyridine], with 5.9 nM; and `COc1ccc(-n2c(C)nc(C#Cc3ccnc(Cl)c3)c2C)cc1` [compound 10, 2-Chloro-4-[1-(4-methoxy-phenyl)-2,5-dimethyl-1H-imidazol-4-ylethynyl]-pyridine], with 30 nM; and `Cc1cc(C(F)(F)F)cc(-n2c(C)nc(C#Cc3ccnc(Cl)c3)c2C)n1` [compound 17, 2-[4-(2-Chloro-pyridin-4-ylethynyl)-2,5-dimethyl-imidazol-1-yl]-6-methyl-4-trifluoromethyl-pyridine], with 79 nM.
Turning to `Cc1nc(C#Cc2ccnc(Cl)c2)c(C)n1-c1cccc(C(F)(F)F)c1` [compound 21, 2-Chloro-4-[2,5-dimethyl-1-(3-trifluoromethyl-phenyl)-1H-imidazol-4-ylethynyl]-pyridine], the Ki worked out at 55 nM.
Then `Cc1cccc(-n2c(C)nc(C#Cc3ccnc(Cl)c3)c2C)n1` [compound 23, 2-[4-(2-Chloro-pyridin-4-ylethynyl)-2,5-dimethyl-1H-imidazol-1-yl]-6-methyl-pyridine], with 93 nM; and `Cc1nc(C#Cc2ccnc(Cl)c2)c(C(F)F)n1-c1ccc(F)cc1` [compound 27, 2-Chloro-4-[5-difluoromethyl-1-(4-fluoro-phenyl)-2-methyl-1H-imidazol-4-ylethynyl]-pyridine], with 42.2 nM.
Under `Cc1ccc(-n2c(C)nc(C#Cc3ccnc(Cl)c3)c2C)nc1` [compound 15, 2-[4-(2-Chloro-pyridin-4-ylethynyl)-2,5-dimethyl-1H-imidazol-1-yl]-5-methyl-pyridine] stands 70 nM; under `Cc1nc(C#Cc2ccnc(Cl)c2)c(C)n1-c1cccc(OC(F)(F)F)c1` [compound 12, 2-Chloro-4-[2,5-dimethyl-1-(3-trifluoromethoxy-phenyl)-1H-imidazol-4-ylethynyl]-pyridine], 14 nM; under `Cc1cc(F)ccc1-n1c(C)nc(C#Cc2ccnc(Cl)c2)c1C` [compound 5, 2-Chloro-4-[1-(4-fluoro-2-methyl-phenyl)-2,5-dimethyl-1H-imidazol-4-ylethynyl]-pyridine], 50 nM.

For the origin of these results see patent publication US20090054490A1, “METHODS FOR THE TREATMENT OF GERD WITH MGLUR5 ANTAGONISTS” (priority 2007, published 2009).
